From patent US9353083B2, “Oxazetidine derivatives, process for preparing them and use in human medicine and in cosmetics” (GALDERMA RESEARCH & DEVELOPMENT, priority 2011, dated 2016)

How the values were obtained:
Assay type in all cases: cell-based
hERG potassium channel = hERG potassium channel (Homo sapiens (Human), UniProt Q12809); assay: hERG channel test: effect on amplitude of IKr in hERG transfected cells; conditions: for effect on the amplitude of IKr encoded by hERG (change in percentage relative to the control): hERG transfected human cells; for effect observed on the amplitude of IKr (in words): 1, 3 and 10 μM; for lengthening the QT time (conclusion from hERG test): under the experimental conditions; for IC50: estimated from 1, 3 and 10 μM, read-out: Estimated IC50 for hERG channel blockade; for concentration from which the decrease of the amplitude of IKr starts: tested at 1, 3 and 10 μM; for decrease of the amplitude of IKr: with 10 μM
Chain of hERG potassium channel (Q12809 whole entry): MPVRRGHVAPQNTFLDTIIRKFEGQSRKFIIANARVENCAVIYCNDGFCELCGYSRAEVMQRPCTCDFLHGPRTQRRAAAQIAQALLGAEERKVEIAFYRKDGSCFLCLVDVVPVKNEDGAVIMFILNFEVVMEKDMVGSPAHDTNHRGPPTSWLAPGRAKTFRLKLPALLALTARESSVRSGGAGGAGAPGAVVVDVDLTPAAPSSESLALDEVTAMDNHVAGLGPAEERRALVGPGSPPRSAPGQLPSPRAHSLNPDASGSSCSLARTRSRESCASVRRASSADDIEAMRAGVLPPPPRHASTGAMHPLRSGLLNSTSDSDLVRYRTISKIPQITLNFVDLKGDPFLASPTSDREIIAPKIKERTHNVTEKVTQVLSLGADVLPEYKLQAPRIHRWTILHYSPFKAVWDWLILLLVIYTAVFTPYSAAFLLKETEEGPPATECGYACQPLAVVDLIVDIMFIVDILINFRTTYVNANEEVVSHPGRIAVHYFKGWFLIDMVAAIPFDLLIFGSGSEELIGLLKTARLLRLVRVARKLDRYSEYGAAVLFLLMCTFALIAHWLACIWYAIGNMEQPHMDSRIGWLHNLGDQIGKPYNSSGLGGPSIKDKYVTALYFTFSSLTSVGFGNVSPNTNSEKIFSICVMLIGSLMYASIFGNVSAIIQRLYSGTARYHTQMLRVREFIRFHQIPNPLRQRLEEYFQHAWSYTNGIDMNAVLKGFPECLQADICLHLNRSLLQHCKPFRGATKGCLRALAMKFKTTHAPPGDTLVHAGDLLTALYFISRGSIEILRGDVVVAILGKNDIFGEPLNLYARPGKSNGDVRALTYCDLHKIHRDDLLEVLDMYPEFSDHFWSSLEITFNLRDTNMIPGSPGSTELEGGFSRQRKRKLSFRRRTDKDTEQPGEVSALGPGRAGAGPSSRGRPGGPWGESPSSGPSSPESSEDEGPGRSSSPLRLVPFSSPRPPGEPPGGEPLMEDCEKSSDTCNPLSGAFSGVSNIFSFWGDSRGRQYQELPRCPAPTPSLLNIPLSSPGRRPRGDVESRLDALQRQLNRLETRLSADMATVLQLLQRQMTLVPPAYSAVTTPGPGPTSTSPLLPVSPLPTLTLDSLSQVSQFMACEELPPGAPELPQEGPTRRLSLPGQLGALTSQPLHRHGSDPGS
Procedure: The object of the study was to track down the inhibition profile of seven selective compounds from human cell lines stably transfected with the gene for expressing the IKr protein of the hERG potassium channel. Several MC1R agonist compounds and especially the compounds of interest in the context of the invention were evaluated. The toxicity evaluation was performed using three increasing concentrations (1, 3 and 10 μM) of 2 hERG transfected cells (no reference compound used) of the following compounds: • Compound 1: N-[(R)-2-[3-(4-hydroxybutoxy)-3-o-tolylazetidin-1-yl]-1-(4-methoxybenzyl)-2-oxoethyl]-3-(1H-imidazol-4-yl)propionamide • Compound 2: (S)-N-[(R)-2-(3-butoxy-3-o-tolylazetidin-1-yl)-1-(4-methoxybenzyl)-2-oxoethyl]-2-hydroxy-3-(1H-imidazol-4-yl)propionamide • Compound 3: 3-(1H-imidazol-4-yl)-N-{(R)-1-(4-methoxybenzyl)-2-oxo-2-[3-o-tolyl-3-(4,4,4-trifluorobutoxy)azetidin-1-yl]ethyl}propionamide • Compound 4: N-[(R)-2-(3-but-2-ynyloxy-3-o-tolylazetidin-1-yl)-1-(4-methoxybenzyl)-2-oxoethyl]-3-(5-methyl-1H-imidazol-4-yl)propionamide • Compound 5: N-[(R)-2-(3-cyclobutylmethoxy-3-o-tolylazetidin-1-yl)-1-(4-methoxybenzyl)-2-oxoethyl]-3-(5-methyl-1H-imidazol-4-yl)propionamide • Compound 6: N-[(R)-2-(3-cyclopropylmethoxy-3-o-tolylazetidin-1-yl)-1-(4-methoxybenzyl)-2-oxoethyl]-3-(5-methyl-1H-imidazol-4-yl)propionamide • Compound 7: N-[(R)-2-(3-butoxy-3-o-tolylazetidin-1-yl)-1-(4-methoxybenzyl)-2-oxoethyl]-3-guanidinopropionamide; bis(trifluoroacetic acid) salt
The effect on the amplitude of IKr encoded by hERG (as the changes in percentages relative to the control) are summarized per compound and per concentration in Table 1 below.

hMC1R = hMC1R (Homo sapiens (Human), UniProt Q01726); assay: Transactivation test melanocortin receptors (CRE-Luc, HEK293), hMC1R; conditions: for EC50: HEK293, pCRE-Luc, agonist mode, read-out: EC50 hMC1-R
Chain of hMC1R (Q01726 whole entry): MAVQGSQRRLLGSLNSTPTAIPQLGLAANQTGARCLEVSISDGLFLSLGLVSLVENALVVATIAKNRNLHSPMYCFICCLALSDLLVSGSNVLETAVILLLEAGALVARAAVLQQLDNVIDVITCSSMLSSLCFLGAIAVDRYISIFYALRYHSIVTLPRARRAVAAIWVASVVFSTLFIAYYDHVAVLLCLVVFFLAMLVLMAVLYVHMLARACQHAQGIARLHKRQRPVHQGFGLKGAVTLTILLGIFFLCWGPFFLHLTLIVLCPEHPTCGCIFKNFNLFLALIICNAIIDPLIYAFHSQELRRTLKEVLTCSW
Procedure: (§1) The aim of this example is to show the Melanocortine receptor selectivity of compound 1 and compound 6 of the present invention: • Cells: The lines HEK293 are transfected with vectors pCRE-Luc and hMC1R or hMC4R. The cells are cultured at 37° C. and 5% CO2, in DMEM medium supplemented with 10% foetal calf serum. • Test principle: In the presence of an activator (agonist), the melanocortin receptor will activate the cAMP pathway, which, via the vector CRE-Luc, will lead to the synthesis of luciferase. After addition of a lysis buffer containing a luminescent luciferase substrate, the luminescence proportional to the degree of activation or inhibition of receptor may be measured. • Testing the products: The products are dissolved at 10 mM in DMSO. They are tested as a response dose at 0.1% of DMSO final. The range comprising 10 points and a zero starts at 10 μM with four-fold dilutions. To test agonists, the products are tested alone. To determine the antagonist behaviour, the products of interest are tested in the presence of 1 nM NDP-MSH (reference agonist). The cells are inoculated at a rate of 5000 cells per well (384-well plate) in serum-free DMEM medium and incubated overnight at 37° C. and 5% CO2. • The products and the reference ligand (NDP-MSH) are added the following day and the plates are reincubated for 6 hours at 37° C. and 5% CO2. After adding the lysis buffer containing luciferin, the plates are read in a Top-Count machine. The results are normalized as percentage of activity using the 100% (cells+NDP-MSH at 10 nM) and 0% (cells alone) controls. An EC50 is calculated for each product using the XLFit software.

hMC4R = hMC4R (Homo sapiens (Human), UniProt P32245); assay: Transactivation test melanocortin receptors (CRE-Luc, HEK293), hMC4R; conditions: HEK293, pCRE-Luc, agonist mode; read-out: EC50 hMC4-R
Chain of hMC4R (P32245 whole entry): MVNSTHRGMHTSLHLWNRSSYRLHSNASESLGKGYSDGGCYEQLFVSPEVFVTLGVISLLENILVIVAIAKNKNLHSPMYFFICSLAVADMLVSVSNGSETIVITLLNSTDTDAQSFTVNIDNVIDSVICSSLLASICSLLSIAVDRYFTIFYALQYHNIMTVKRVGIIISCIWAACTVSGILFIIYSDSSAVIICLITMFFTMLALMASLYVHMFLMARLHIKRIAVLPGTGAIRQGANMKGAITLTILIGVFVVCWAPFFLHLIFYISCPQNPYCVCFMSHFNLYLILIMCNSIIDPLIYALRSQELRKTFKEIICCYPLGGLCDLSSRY
Procedure: as §1, with “The cells are inoculated at a rate of 5000 cells per well (384-well plate) in serum-free DMEM medium and incubated overnight at 37° C. and 5% CO2. • The products and the reference ligand (NDP-MSH) are added the following day and the plates are reincubated for 6 hours at 37° C. and 5% CO2.” left out, “The results are normalized as percentage of activity using the 100% (cells+NDP-MSH at 10 nM) and 0% (cells alone) controls.” left out

Compound | cardiotoxic alert on the hERG channel test (hERG potassium channel) | effect on the amplitude of IKr encoded by hERG (change in percentage relative to the control) (hERG potassium channel; 1 μM) | effect on the amplitude of IKr encoded by hERG (change in percentage relative to the control) (hERG potassium channel; 3 μM) | effect on the amplitude of IKr encoded by hERG (change in percentage relative to the control) (hERG potassium channel; 10 μM) | effect observed on the amplitude of IKr (in words) (hERG potassium channel) | lengthening the QT time (conclusion from hERG test) (hERG potassium channel) | melanocortin receptor selectivity (hMC1R versus hMC4R) (hMC1R) | EC50 (hMC1R) | EC50 (hMC4R) | IC50 (hERG potassium channel) | concentration from which the decrease of the amplitude of IKr starts (hERG potassium channel) | decrease of the amplitude of IKr (hERG potassium channel)
COc1ccc(C[C@@H](NC(=O)CCc2c[nH]cn2)C(=O)N2CC(OCCCCO)(c3ccccc3C)C2)cc1 [Compound 1, N-[(R)-2-[3-(4-hydroxybutoxy)-3-o-tolylazetidin-1-yl]-1-(4-methoxybenzyl)-2-oxoethyl]-3-(1H-imidazol-4-yl)propionamide] | do not present any cardiotoxic alert | −1.5 ± 2.5% | −3.0 ± 1.0% | −7.5 ± 3.5% | no effect observed | did not exhibit this characteristic | hMC1R highly selective | 0.25 µM | 8 µM | – | – | –
CCCCOC1(c2ccccc2C)CN(C(=O)[C@@H](Cc2ccc(OC)cc2)NC(=O)[C@@H](O)Cc2c[nH]cn2)C1 [Compound 2, (S)-N-[(R)-2-(3-butoxy-3-o-tolylazetidin-1-yl)-1-(4-methoxybenzyl)-2-oxoethyl]-2-hydroxy-3-(1H-imidazol-4-yl)propionamide] | – | +1.0 ± 1.0% | −5.0 ± 5.0% | −51.5 ± 6.5% | modified but only at the highest concentration | more substantially | – | – | – | 10 µM | – | –
COc1ccc(C[C@@H](NC(=O)CCc2c[nH]cn2)C(=O)N2CC(OCCCC(F)(F)F)(c3ccccc3C)C2)cc1 [Compound 3, 3-(1H-imidazol-4-yl)-N-{(R)-1-(4-methoxybenzyl)-2-oxo-2-[3-o-tolyl-3-(4,4,4-trifluorobutoxy)azetidin-1-yl]ethyl}propionamide] | – | −16.0 ± 3.0% | −42.5 ± 5.5% | −86.5 ± 3.5% | dose effect observed | more substantially | – | – | – | > 3 µM | 1000 nM | 86.5%
CC#CCOC1(c2ccccc2C)CN(C(=O)[C@@H](Cc2ccc(OC)cc2)NC(=O)CCc2nc[nH]c2C)C1 [Compound 4, N-[(R)-2-(3-but-2-ynyloxy-3-o-tolylazetidin-1-yl)-1-(4-methoxybenzyl)-2-oxoethyl]-3-(5-methyl-1H-imidazol-4-yl)propionamide] | – | −20.5 ± 9.5% | −22.0 ± 10.0% | −42.5 ± 2.5% | dose effect observed | more substantially | – | – | – | > 10 µM | 3000 nM | 42.5%
COc1ccc(C[C@@H](NC(=O)CCc2nc[nH]c2C)C(=O)N2CC(OCC3CCC3)(c3ccccc3C)C2)cc1 [Compound 5, N-[(R)-2-(3-cyclobutylmethoxy-3-o-tolylazetidin-1-yl)-1-(4-methoxybenzyl)-2-oxoethyl]-3-(5-methyl-1H-imidazol-4-yl)propionamide] | – | −17.0 ± 4.0% | −49.5 ± 16.5% | −76.5 ± 17.5% | dose effect observed | more substantially | – | – | – | 3 µM | 1000 nM | 76.5%
COc1ccc(C[C@@H](NC(=O)CCc2nc[nH]c2C)C(=O)N2CC(OCC3CC3)(c3ccccc3C)C2)cc1 [Compound 6, N-[(R)-2-(3-cyclopropylmethoxy-3-o-tolylazetidin-1-yl)-1-(4-methoxybenzyl)-2-oxoethyl]-3-(5-methyl-1H-imidazol-4-yl)propionamide] | do not present any cardiotoxic alert | −5.0 ± 3.0% | −9.5 ± 3.5% | −16.0 ± 7.0% | no effect observed | did not exhibit this characteristic | hMC1R highly selective | 0.07 µM | 4.5 µM | – | – | –
CCCCOC1(c2ccccc2C)CN(C(=O)[C@@H](Cc2ccc(OC)cc2)NC(=O)CCNC(=N)N)C1 [Compound 7, N-[(R)-2-(3-butoxy-3-o-tolylazetidin-1-yl)-1-(4-methoxybenzyl)-2-oxoethyl]-3-guanidinopropionamide] | – | −19.5 ± 4.5% | −29.5 ± 9.5% | −33.0 ± 12.0% | slight dose effect observed | slightly | – | – | – | > 10 µM | 1000 nM | 33%
